A short description of one data set: Solubility in water. In kind it is physicochemical.
Data set [1] can be described thus: In vitro metabolism, incubation with rat liver microsomes. In kind it is in vitro ADME. To be noted: phosphate buffer pH 7.4, NADPH, 37° C., HPLC peak areas. How it is done:
The test substances were incubated in standard experiments with rat liver microsomes (phosphate buffer with pH 7.4, NADPH, 37° C.). The biotransformations were stopped after 0, 15, 30 and 60 min by adding acetonitrile and were centrifuged, and the protein-free supernatant was analyzed by HPLC. Resulting metabolites were approximately quantified via the peak areas. The result of the biotransformation of Example 12 and of the corresponding sulfanyl compound, which is representative in terms of the sulfinyl/sulfanyl substitution comparison, is described by way of example. The sulfanyl compound was rapidly converted into a number of metabolites and, after 30 min, less than 1% of the pharmacologically active starting substance remained. Under identical experimental conditions, about 70% of the initial amount of Example 12 were still present after 30 min, and more than 50% were still present after 60 min.

≈ marks a conversion by molar mass, not a printed value. Counter-ions that a name gives are not always drawn.

Compound `CC(=O)Nc1cc(-c2c(-c3ccc(F)cc3)nc([S+](C)[O-])n2C)ccn1` (stereo not drawn) [Example 3 hydrobromide, N-{4-[5-(4-Fluorophenyl)-2-methanesulfinyl-3-methyl-3H-imidazol-4-yl]pyridin-2-yl}acetamide] came in with a solubility in water in “Solubility in water” of 1.05 mg/mL.
`CC(=O)Nc1cc(-c2c(-c3ccc(F)cc3)nc([S+](C)[O-])n2C)ccn1` (stereo not drawn) [Example 3 hydrochloride, N-{4-[5-(4-Fluorophenyl)-2-methanesulfinyl-3-methyl-3H-imidazol-4-yl]pyridin-2-yl}acetamide] had a solubility in water in “Solubility in water” of 1.12 mg/mL.
The same measure, in the same setting: the figure for `CC(=O)Nc1cc(-c2c(-c3ccc(F)cc3)nc([S+](C)[O-])n2C)ccn1` (stereo not drawn) [Example 3 hydrogensulfate, N-{4-[5-(4-Fluorophenyl)-2-methanesulfinyl-3-methyl-3H-imidazol-4-yl]pyridin-2-yl}acetamide] is 0.39 mg/mL (≈ 1050 µM); for `CC(=O)Nc1cc(-c2c(-c3ccc(F)cc3)nc([S+](C)[O-])n2C)ccn1` (stereo not drawn) [Example 3 methane sulfonate, N-{4-[5-(4-Fluorophenyl)-2-methanesulfinyl-3-methyl-3H-imidazol-4-yl]pyridin-2-yl}acetamide] it is 0.89 mg/mL.
For `CC(=O)Nc1cc(-c2c(-c3ccc(F)cc3)nc([S+](C)[O-])n2C)ccn1` (stereo not drawn) [Example 3 sulfate, N-{4-[5-(4-Fluorophenyl)-2-methanesulfinyl-3-methyl-3H-imidazol-4-yl]pyridin-2-yl}acetamide], the solubility in water in the data set “Solubility in water” came to 0.31 mg/mL.
In the case of `CC(=O)Nc1cc(-c2c(-c3ccc(F)cc3)nc([S+](C)[O-])n2C)ccn1` (stereo not drawn) [Example 3, N-{4-[5-(4-Fluorophenyl)-2-methanesulfinyl-3-methyl-3H-imidazol-4-yl]pyridin-2-yl}acetamide], in the data set “Solubility in water”, the solubility in water came out at 0.07 mg/mL (≈ 188 µM).
Regarding `COCCn1c([S+](C)[O-])nc(-c2ccc(F)cc2)c1-c1ccnc(NC(C)C)c1` (stereo not drawn) [Example 12, {4-[5-(4-Fluorophenyl)-2-methanesulfinyl-3-(2-methoxyethyl)-3H-imidazol-4-yl]pyridin-2-yl}isopropylamine], in data set [1] (30 min), the “initial amount of starting substance still present after 30 min” value was “about 70%”. Also, the “initial amount still present after 60 min” value in data set [1] (60 min) is given as “more than 50%”.
`Fc1ccc(-c2nc3n(c2-c2ccnc(Nc4ccccc4)c2)CCS3)cc1` [Example 34, {4-[6-(4-Fluorophenyl)-2,3-dihydro-imidazo[2,1-b]thiazol-5-yl]-pyridin-2-yl}-phenyl-amine]: the melting point (usually the temperature of the solid-liquid transition) is 298.7 °C.

(Values after patent US20100273833A1, “2-SULFINYL- AND 2-SULFONYL-SUBSTITUTED IMIDAZOLE DERIVATIVES AND THEIR USE AS CYTOKINE INHIBITORS” (priority 2005, published 2010).)
